Patent US10844077B2, “Thiazolyl-containing compounds for treating proliferative diseases” (Dana-Farber Cancer Institute, Inc., priority 2014, dated 2020)
Where two headings read alike, the source gives them in different places.

Key:
Type in all cases: binding
broad panel of kinases [1] = molecular target: broad panel of kinases (Homo sapiens, UniProt P07949, V804L); settings: RET(V804L); 1 μM
broad panel of kinases [2] = molecular target: broad panel of kinases (Homo sapiens, UniProt P49841); settings: GSK3B; 1 μM
broad panel of kinases [3] = molecular target: broad panel of kinases (Homo sapiens, UniProt P27448); settings: MARK3; 1 μM
broad panel of kinases [4] = molecular target: broad panel of kinases (Homo sapiens, UniProt P17612); settings: PKAC-alpha; 1 μM
broad panel of kinases [5] = molecular target: broad panel of kinases (Homo sapiens, UniProt P43403); settings: ZAP70; 1 μM
broad panel of kinases [6] = molecular target: broad panel of kinases (Homo sapiens, UniProt P00533, L858R); settings: EGFR(L858R); 1 μM
broad panel of kinases [7] = molecular target: broad panel of kinases (Homo sapiens, UniProt P10721, V559D); settings: KIT(V559D); 1 μM
broad panel of kinases [8] = molecular target: broad panel of kinases (Homo sapiens, UniProt Q9NYL2); settings: ZAK; 1 μM
broad panel of kinases [9] = molecular target: broad panel of kinases (Homo sapiens, UniProt Q96NX5); settings: CAMK1G; 1 μM
broad panel of kinases [10] = molecular target: broad panel of kinases (Homo sapiens, UniProt Q9UBF8); settings: PIK4CB; 1 μM
broad panel of kinases [11] = molecular target: broad panel of kinases (Homo sapiens, UniProt Q8NFD2); settings: ANKK1; 1 μM
broad panel of kinases [12] = molecular target: broad panel of kinases (Homo sapiens, UniProt O75676); settings: 1 μM
broad panel of kinases [13] = molecular target: broad panel of kinases (Homo sapiens, UniProt P42336, E545A); settings: PIK3CA(E545A); 1 μM
broad panel of kinases [14] = molecular target: broad panel of kinases (Homo sapiens, UniProt Q14164); settings: IKK-epsilon; 1 μM
broad panel of kinases [15] = molecular target: broad panel of kinases (Homo sapiens, UniProt Q9UM73, L1196M); settings: ALK(L1196M); 1 μM
broad panel of kinases [16] = molecular target: broad panel of kinases (Homo sapiens, UniProt Q99755); settings: PIP5K1A; 1 μM
broad panel of kinases [17] = molecular target: broad panel of kinases (Homo sapiens, UniProt Q13131); settings: AMPK-alpha1; 1 μM
broad panel of kinases [18] = molecular target: broad panel of kinases (Homo sapiens, UniProt Q8TBX8); settings: PIP5K2C; 1 μM
broad panel of kinases [19] = molecular target: broad panel of kinases (Homo sapiens, UniProt Q00536); settings: PCTK1; 1 μM
broad panel of kinases [20] = molecular target: broad panel of kinases (Homo sapiens, UniProt O00506); settings: YSK1; 1 μM
broad panel of kinases [21] = molecular target: broad panel of kinases (Homo sapiens, UniProt P36507); settings: MEK2; 1 μM
broad panel of kinases [22] = molecular target: broad panel of kinases (Homo sapiens, UniProt P07949, M918T); settings: RET(M918T); 1 μM
broad panel of kinases [23] = molecular target: broad panel of kinases (Homo sapiens, UniProt Q9H422); settings: HIPK3; 1 μM
broad panel of kinases [24] = molecular target: broad panel of kinases (Homo sapiens, UniProt O76039); settings: CDKL5; 1 μM
broad panel of kinases [25] = molecular target: broad panel of kinases (Homo sapiens, UniProt P00533); settings: EGFR; 1 μM
broad panel of kinases [26] = molecular target: broad panel of kinases (Homo sapiens, UniProt Q04912); settings: MST1R; 1 μM
broad panel of kinases [27] = molecular target: broad panel of kinases (Homo sapiens, UniProt Q8IU85); settings: CAMK1D; 1 μM
broad panel of kinases [28] = molecular target: broad panel of kinases (Homo sapiens, UniProt P27361); settings: ERK1; 1 μM
broad panel of kinases [29] = molecular target: broad panel of kinases (Homo sapiens, UniProt Q15349); settings: 1 μM
broad panel of kinases [30] = molecular target: broad panel of kinases (Homo sapiens, UniProt P00533, L861Q); settings: EGFR(L861Q); 1 μM
broad panel of kinases [31] = molecular target: broad panel of kinases (Homo sapiens, UniProt Q13464); settings: ROCK1; 1 μM
broad panel of kinases [32] = molecular target: broad panel of kinases (Homo sapiens, UniProt P07949); settings: RET; 1 μM
broad panel of kinases [33] = molecular target: broad panel of kinases (Homo sapiens, UniProt Q96L34); settings: MARK4; 1 μM
broad panel of kinases [34] = molecular target: broad panel of kinases (Homo sapiens, UniProt Q8NE63); settings: HIPK4; 1 μM
broad panel of kinases [35] = molecular target: broad panel of kinases (Homo sapiens, UniProt O94921); settings: PFTK1; 1 μM
broad panel of kinases [36] = molecular target: broad panel of kinases (Homo sapiens, UniProt Q9BQI3); settings: EIF2AK1; 1 μM

broad panel of kinases (Homo sapiens, UniProt Q9UM73, L1196M), sequence (Q9UM73 19-1620 L1196M limits assumed): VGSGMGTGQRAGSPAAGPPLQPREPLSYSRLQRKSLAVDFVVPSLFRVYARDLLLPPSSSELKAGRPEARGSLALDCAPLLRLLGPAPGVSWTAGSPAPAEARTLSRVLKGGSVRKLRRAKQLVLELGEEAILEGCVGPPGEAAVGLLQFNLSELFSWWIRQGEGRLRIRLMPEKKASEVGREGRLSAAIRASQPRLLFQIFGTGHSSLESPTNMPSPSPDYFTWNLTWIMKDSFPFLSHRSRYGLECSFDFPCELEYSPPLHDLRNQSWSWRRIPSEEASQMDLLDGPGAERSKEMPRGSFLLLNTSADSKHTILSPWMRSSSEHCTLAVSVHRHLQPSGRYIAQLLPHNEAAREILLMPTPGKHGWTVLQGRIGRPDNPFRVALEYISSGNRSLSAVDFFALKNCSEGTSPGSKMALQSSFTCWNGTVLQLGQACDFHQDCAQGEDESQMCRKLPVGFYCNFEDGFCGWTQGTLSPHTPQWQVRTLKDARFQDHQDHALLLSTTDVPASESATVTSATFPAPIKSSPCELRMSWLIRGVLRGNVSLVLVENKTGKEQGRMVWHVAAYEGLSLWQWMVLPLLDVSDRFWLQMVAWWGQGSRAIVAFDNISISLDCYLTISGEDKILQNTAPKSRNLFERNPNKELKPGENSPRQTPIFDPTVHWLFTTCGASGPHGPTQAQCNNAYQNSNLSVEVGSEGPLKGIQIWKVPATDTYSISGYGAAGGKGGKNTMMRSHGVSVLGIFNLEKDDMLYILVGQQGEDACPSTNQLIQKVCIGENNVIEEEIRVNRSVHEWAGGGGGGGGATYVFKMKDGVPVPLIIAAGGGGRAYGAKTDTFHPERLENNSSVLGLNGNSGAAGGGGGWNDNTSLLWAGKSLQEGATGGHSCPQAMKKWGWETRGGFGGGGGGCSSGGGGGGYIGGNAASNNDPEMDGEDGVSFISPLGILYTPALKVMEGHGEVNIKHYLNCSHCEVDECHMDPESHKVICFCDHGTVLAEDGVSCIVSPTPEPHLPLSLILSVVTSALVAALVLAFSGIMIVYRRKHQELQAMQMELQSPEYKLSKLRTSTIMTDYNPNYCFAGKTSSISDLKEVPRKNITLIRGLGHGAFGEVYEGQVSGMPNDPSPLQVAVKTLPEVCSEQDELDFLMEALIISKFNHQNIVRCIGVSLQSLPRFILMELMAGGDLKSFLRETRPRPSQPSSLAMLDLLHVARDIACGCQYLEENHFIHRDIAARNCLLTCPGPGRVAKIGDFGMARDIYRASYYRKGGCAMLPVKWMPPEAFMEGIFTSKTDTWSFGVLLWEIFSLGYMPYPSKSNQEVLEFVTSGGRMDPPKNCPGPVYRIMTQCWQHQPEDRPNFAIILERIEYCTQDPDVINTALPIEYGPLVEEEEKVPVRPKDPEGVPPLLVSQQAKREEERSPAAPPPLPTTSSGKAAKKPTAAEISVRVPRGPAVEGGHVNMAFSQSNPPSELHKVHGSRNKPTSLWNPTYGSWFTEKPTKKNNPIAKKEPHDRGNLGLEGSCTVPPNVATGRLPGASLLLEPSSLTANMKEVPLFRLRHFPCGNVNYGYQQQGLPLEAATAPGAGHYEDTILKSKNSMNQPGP
broad panel of kinases (Homo sapiens, UniProt Q9UBF8), sequence (Q9UBF8 2-816 limits assumed): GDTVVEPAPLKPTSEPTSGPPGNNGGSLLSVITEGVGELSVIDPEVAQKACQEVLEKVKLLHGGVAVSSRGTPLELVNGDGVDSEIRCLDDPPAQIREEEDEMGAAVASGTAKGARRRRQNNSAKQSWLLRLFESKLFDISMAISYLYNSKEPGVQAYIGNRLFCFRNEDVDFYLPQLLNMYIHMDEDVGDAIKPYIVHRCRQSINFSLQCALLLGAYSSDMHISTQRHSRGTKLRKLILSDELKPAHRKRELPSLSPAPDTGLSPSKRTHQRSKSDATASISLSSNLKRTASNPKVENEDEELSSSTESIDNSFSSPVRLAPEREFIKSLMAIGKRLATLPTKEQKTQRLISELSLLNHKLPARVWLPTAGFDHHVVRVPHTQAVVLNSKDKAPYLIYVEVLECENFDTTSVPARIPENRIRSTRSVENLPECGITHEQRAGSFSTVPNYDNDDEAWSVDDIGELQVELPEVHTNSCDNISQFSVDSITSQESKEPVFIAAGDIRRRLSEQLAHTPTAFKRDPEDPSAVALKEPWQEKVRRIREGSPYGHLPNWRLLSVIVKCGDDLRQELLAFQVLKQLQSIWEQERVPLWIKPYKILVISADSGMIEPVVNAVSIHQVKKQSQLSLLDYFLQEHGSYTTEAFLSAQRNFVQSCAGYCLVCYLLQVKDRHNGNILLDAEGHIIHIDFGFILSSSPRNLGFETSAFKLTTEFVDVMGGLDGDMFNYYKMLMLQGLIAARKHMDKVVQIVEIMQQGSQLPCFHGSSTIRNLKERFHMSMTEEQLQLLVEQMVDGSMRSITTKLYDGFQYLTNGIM
broad panel of kinases (Homo sapiens, UniProt P27361), sequence (P27361 2-379 limits assumed): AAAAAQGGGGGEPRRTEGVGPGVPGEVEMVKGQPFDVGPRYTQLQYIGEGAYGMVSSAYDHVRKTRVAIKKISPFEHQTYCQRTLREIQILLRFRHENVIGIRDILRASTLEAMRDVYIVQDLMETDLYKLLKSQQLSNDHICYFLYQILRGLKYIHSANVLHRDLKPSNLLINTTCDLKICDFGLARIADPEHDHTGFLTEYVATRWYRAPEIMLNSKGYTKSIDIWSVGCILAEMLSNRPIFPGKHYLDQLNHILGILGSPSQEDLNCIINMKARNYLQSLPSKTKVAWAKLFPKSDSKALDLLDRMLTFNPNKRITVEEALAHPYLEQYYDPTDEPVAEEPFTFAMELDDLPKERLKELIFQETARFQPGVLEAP
broad panel of kinases (Homo sapiens, UniProt Q04912), sequence (Q04912 25-304 limits assumed): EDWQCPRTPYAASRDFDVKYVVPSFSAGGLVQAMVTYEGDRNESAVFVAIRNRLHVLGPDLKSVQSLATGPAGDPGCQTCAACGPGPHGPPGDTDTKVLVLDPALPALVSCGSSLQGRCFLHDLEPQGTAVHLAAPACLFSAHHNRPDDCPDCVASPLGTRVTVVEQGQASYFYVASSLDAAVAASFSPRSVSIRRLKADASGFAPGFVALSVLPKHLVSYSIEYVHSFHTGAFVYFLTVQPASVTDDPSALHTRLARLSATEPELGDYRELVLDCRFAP
broad panel of kinases (Homo sapiens, UniProt Q04912), sequence (Q04912 310-1400 limits assumed): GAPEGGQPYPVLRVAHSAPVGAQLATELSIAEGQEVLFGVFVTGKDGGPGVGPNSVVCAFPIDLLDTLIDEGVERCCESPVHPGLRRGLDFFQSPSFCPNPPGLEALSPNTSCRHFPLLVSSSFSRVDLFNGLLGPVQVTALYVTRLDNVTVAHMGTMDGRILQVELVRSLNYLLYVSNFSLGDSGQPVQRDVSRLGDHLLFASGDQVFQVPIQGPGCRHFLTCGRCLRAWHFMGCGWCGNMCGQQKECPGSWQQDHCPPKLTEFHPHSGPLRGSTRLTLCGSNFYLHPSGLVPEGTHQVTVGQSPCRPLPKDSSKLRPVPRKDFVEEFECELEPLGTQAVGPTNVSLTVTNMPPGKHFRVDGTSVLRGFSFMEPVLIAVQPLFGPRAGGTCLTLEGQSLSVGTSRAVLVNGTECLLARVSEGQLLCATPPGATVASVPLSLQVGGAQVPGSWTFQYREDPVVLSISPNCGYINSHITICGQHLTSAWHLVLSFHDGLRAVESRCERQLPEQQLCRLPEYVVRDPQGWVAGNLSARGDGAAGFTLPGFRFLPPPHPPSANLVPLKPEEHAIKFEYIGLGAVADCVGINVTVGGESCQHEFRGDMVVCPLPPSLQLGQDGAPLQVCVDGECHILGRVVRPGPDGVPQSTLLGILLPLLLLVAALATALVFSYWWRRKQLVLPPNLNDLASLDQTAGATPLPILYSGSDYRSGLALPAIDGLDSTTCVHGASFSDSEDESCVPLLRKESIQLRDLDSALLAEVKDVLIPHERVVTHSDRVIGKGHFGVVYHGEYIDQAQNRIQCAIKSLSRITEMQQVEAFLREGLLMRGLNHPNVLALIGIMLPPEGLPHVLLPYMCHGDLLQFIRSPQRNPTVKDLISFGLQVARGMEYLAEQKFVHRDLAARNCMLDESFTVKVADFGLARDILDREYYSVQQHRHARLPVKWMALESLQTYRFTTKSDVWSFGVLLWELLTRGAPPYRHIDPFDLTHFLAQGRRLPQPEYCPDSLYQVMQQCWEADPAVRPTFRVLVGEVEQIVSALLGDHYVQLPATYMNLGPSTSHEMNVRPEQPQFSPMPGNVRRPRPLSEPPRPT
broad panel of kinases (Homo sapiens, UniProt Q8TBX8), sequence (Q8TBX8 2-421 limits assumed): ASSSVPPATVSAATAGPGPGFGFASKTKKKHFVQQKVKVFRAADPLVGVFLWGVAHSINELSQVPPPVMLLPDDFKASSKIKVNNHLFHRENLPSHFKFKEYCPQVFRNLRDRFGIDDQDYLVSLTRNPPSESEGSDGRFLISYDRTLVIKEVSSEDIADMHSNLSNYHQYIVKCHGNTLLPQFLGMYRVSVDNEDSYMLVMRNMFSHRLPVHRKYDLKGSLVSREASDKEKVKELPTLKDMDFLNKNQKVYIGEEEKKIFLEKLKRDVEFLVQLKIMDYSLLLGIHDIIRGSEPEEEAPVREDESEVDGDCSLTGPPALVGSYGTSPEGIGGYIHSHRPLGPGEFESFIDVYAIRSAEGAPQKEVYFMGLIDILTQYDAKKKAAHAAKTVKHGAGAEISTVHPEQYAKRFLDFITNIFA

## C=CC(=O)N1CC[C@H](Nc2nc(CN3CCOCC3)cc(Nc3ncc(C(=O)Nc4c(C)cccc4C)s3)n2)C1 [Example I-2]
Broad panel of kinases [1]
  percent of control binding remaining (lower = stronger binding): 98%
Broad panel of kinases [2]
  percent of control binding remaining (lower = stronger binding): 100%
Broad panel of kinases [3]
  percent of control binding remaining (lower = stronger binding): 94%
Broad panel of kinases [4]
  percent of control binding remaining (lower = stronger binding): 85%
Broad panel of kinases [5]
  percent of control binding remaining (lower = stronger binding): 99%
Broad panel of kinases [6]
  percent of control binding remaining (lower = stronger binding): 0%
Broad panel of kinases [7]
  percent of control binding remaining (lower = stronger binding): 0%
Broad panel of kinases [8]
  percent of control binding remaining (lower = stronger binding): 87%
Broad panel of kinases [9]
  percent of control binding remaining (lower = stronger binding): 89%
Broad panel of kinases [10]
  percent of control binding remaining (lower = stronger binding): 100%
Broad panel of kinases [11]
  percent of control binding remaining (lower = stronger binding): 94%
Broad panel of kinases [12]; RPS6KA4(Kin.Dom.1-N-terminal)
  percent of control binding remaining (lower = stronger binding): 100%
Broad panel of kinases [12]; RPS6KA4(Kin.Dom.2-C-terminal)
  percent of control binding remaining (lower = stronger binding): 96%
Broad panel of kinases [13]
  percent of control binding remaining (lower = stronger binding): 100%
Broad panel of kinases [14]
  percent of control binding remaining (lower = stronger binding): 100%
Broad panel of kinases [15]
  percent of control binding remaining (lower = stronger binding): 72%
Broad panel of kinases [16]
  percent of control binding remaining (lower = stronger binding): 92%
Broad panel of kinases [17]
  percent of control binding remaining (lower = stronger binding): 100%
Broad panel of kinases [18]
  percent of control binding remaining (lower = stronger binding): 100%
Broad panel of kinases [19]
  percent of control binding remaining (lower = stronger binding): 97%
Broad panel of kinases [20]
  percent of control binding remaining (lower = stronger binding): 85%
Broad panel of kinases [21]
  percent of control binding remaining (lower = stronger binding): 78%
Broad panel of kinases [22]
  percent of control binding remaining (lower = stronger binding): 92%
Broad panel of kinases [23]
  percent of control binding remaining (lower = stronger binding): 95%
Broad panel of kinases [24]
  percent of control binding remaining (lower = stronger binding): 100%
Broad panel of kinases [25]
  percent of control binding remaining (lower = stronger binding): 5.6%
Broad panel of kinases [26]
  percent of control binding remaining (lower = stronger binding): 99%
Broad panel of kinases [27]
  percent of control binding remaining (lower = stronger binding): 100%
Broad panel of kinases [28]
  percent of control binding remaining (lower = stronger binding): 97%
Broad panel of kinases [29]; RSK3(Kin.Dom.1-N-terminal)
  percent of control binding remaining (lower = stronger binding): 93%
Broad panel of kinases [29]; RSK3(Kin.Dom.2-C-terminal)
  percent of control binding remaining (lower = stronger binding): 100%
Broad panel of kinases [30]
  percent of control binding remaining (lower = stronger binding): 1.3%
Broad panel of kinases [31]
  percent of control binding remaining (lower = stronger binding): 88%
Broad panel of kinases [32]
  percent of control binding remaining (lower = stronger binding): 100%
Broad panel of kinases [33]
  percent of control binding remaining (lower = stronger binding): 91%
Broad panel of kinases [34]
  percent of control binding remaining (lower = stronger binding): 100%
Broad panel of kinases [35]
  percent of control binding remaining (lower = stronger binding): 72%
Broad panel of kinases [36]
  percent of control binding remaining (lower = stronger binding): 100%

## C=CC(=O)N1CC[C@H](Nc2nccc(Nc3ncc(C(=O)Nc4c(C)cccc4C)s3)n2)C1 [Example I-3]
Broad panel of kinases [1]
  percent of control binding remaining (lower = stronger binding): 100%
Broad panel of kinases [2]
  percent of control binding remaining (lower = stronger binding): 100%
Broad panel of kinases [3]
  percent of control binding remaining (lower = stronger binding): 57%
Broad panel of kinases [4]
  percent of control binding remaining (lower = stronger binding): 85%
Broad panel of kinases [5]
  percent of control binding remaining (lower = stronger binding): 100%
Broad panel of kinases [6]
  percent of control binding remaining (lower = stronger binding): 0.75%
Broad panel of kinases [7]
  percent of control binding remaining (lower = stronger binding): 0%
Broad panel of kinases [8]
  percent of control binding remaining (lower = stronger binding): 94%
Broad panel of kinases [9]
  percent of control binding remaining (lower = stronger binding): 97%
Broad panel of kinases [10]
  percent of control binding remaining (lower = stronger binding): 36%
Broad panel of kinases [11]
  percent of control binding remaining (lower = stronger binding): 100%
Broad panel of kinases [12]; RPS6KA4(Kin.Dom.1-N-terminal)
  percent of control binding remaining (lower = stronger binding): 100%
Broad panel of kinases [12]; RPS6KA4(Kin.Dom.2-C-terminal)
  percent of control binding remaining (lower = stronger binding): 100%
Broad panel of kinases [13]
  percent of control binding remaining (lower = stronger binding): 100%
Broad panel of kinases [14]
  percent of control binding remaining (lower = stronger binding): 100%
Broad panel of kinases [15]
  percent of control binding remaining (lower = stronger binding): 76%
Broad panel of kinases [16]
  percent of control binding remaining (lower = stronger binding): 91%
Broad panel of kinases [17]
  percent of control binding remaining (lower = stronger binding): 98%
Broad panel of kinases [18]
  percent of control binding remaining (lower = stronger binding): 100%
Broad panel of kinases [19]
  percent of control binding remaining (lower = stronger binding): 100%
Broad panel of kinases [20]
  percent of control binding remaining (lower = stronger binding): 87%
Broad panel of kinases [21]
  percent of control binding remaining (lower = stronger binding): 100%
Broad panel of kinases [22]
  percent of control binding remaining (lower = stronger binding): 99%
Broad panel of kinases [23]
  percent of control binding remaining (lower = stronger binding): 100%
Broad panel of kinases [24]
  percent of control binding remaining (lower = stronger binding): 100%
Broad panel of kinases [25]
  percent of control binding remaining (lower = stronger binding): 2.6%
Broad panel of kinases [26]
  percent of control binding remaining (lower = stronger binding): 100%
Broad panel of kinases [27]
  percent of control binding remaining (lower = stronger binding): 90%
Broad panel of kinases [28]
  percent of control binding remaining (lower = stronger binding): 95%
Broad panel of kinases [29]; RSK3(Kin.Dom.1-N-terminal)
  percent of control binding remaining (lower = stronger binding): 89%
Broad panel of kinases [29]; RSK3(Kin.Dom.2-C-terminal)
  percent of control binding remaining (lower = stronger binding): 97%
Broad panel of kinases [30]
  percent of control binding remaining (lower = stronger binding): 0.8%
Broad panel of kinases [31]
  percent of control binding remaining (lower = stronger binding): 89%
Broad panel of kinases [32]
  percent of control binding remaining (lower = stronger binding): 86%
Broad panel of kinases [33]
  percent of control binding remaining (lower = stronger binding): 80%
Broad panel of kinases [34]
  percent of control binding remaining (lower = stronger binding): 97%
Broad panel of kinases [35]
  percent of control binding remaining (lower = stronger binding): 99%
Broad panel of kinases [36]
  percent of control binding remaining (lower = stronger binding): 97%
